Tested on: Subjects With Active Crohn's Disease With Evidence of Mucosal Ulceration
Test: Study 3 - Creatinine levels
Format: in vivo, human
Details: for Study 3 - Creatinine Mean CFB / Study 3 - Creatinine Mean percentage CFB: 10 weeks results, 200 mg q.d.
Source text: Double-Blind, Randomized, Placebo-Controlled, Multi-Centre Study to Investigate the Efficacy and Safety of Compound 1 in Subjects With Active Crohn's Disease With Evidence of Mucosal Ulceration. This is a double-blind, randomized, placebo-controlled, multi-centre Phase 2 study to investigate the efficacy and safety of Compound 1 administered once daily for the treatment of active CD with evidence of mucosal ulceration. The pharmacokinetics (including a PK substudy) and pharmacodynamics of Compound 1 and metabolite in CD will also be characterised. A total of 180 eligible subjects will be randomized to receive Compound 1 or placebo in addition to their stable background treatment (eg, corticosteroids, aminosalicylates, or CD-related antibiotics). The study will consist of 2 parts, with total treatment duration of 20 weeks. Randomization in Part 1 will be stratified according the subject's previous anti-TNF exposure/response, CRP level at Screening, and oral corticosteroid use at visit Day −1. After the first 10 weeks of treatment in Part 1, patients will be re-randomized for Part 2 as shown in the diagram below and will be stratified according to the subject's clinical response, previous anti-TNF exposure/response, and oral corticosteroid use at visit Day -1. [table] Creatinine levels determination is available at Quest Diagnostics, Clinical Trials, Quest House, 125-135 Staines Road, Hounslow, Middlesex, TW3 3JB, United Kingdom under Catalogue n# 82565. For Study 3, the data are obtained at BARC Europe, 3B,Industrie Park, Zwijnaarde, B-9052 Ghent, Belgium. The Enzymatic method is based on the determination of sarcosine after conversion of creatinine with the aid of creatininase, creatinase, and sarcosine oxidase. The liberated hydrogen peroxide reacts with 4-aminophenazone and HTIB to form a quinone imine chromogen. The reaction is catalyzed by peroxidase. The color intensity is directly proportional to concentration of creatinine present and can be measured photometrically.

[1] = 200 mg q.d. continued to week 20 (N = 77), week 0
[2] = 200 mg q.d. continued to week 20 (N = 77), week 2
[3] = 200 mg q.d. continued to week 20 (N = 77), week 4
[4] = 200 mg q.d. continued to week 20 (N = 77), week 6
[5] = 200 mg q.d. continued to week 20 (N = 77), week 10
[6] = 200 mg q.d. continued to week 20 (N = 77), week 12
[7] = 200 mg q.d. continued to week 20 (N = 77), week 16
[8] = 200 mg q.d. continued to week 20 (N = 77), week 20
[9] = 200 mg q.d. week 0 to 10, to 100 mg q.d. week 10 to 20 (N = 30), week 0
[10] = 200 mg q.d. week 0 to 10, to 100 mg q.d. week 10 to 20 (N = 30), week 2
[11] = 200 mg q.d. week 0 to 10, to 100 mg q.d. week 10 to 20 (N = 30), week 4
[12] = 200 mg q.d. week 0 to 10, to 100 mg q.d. week 10 to 20 (N = 30), week 6
[13] = 200 mg q.d. week 0 to 10, to 100 mg q.d. week 10 to 20 (N = 30), week 10
[14] = 200 mg q.d. week 0 to 10, to 100 mg q.d. week 10 to 20 (N = 30), week 12
[15] = 200 mg q.d. week 0 to 10, to 100 mg q.d. week 10 to 20 (N = 30), week 16
[16] = 200 mg q.d. week 0 to 10, to 100 mg q.d. week 10 to 20 (N = 30), week 20
[17] = 200 mg q.d. week 0 to 10, to placebo week 10 to 20 (N = 23), week 0
[18] = 200 mg q.d. week 0 to 10, to placebo week 10 to 20 (N = 23), week 2
[19] = 200 mg q.d. week 0 to 10, to placebo week 10 to 20 (N = 23), week 4
[20] = 200 mg q.d. week 0 to 10, to placebo week 10 to 20 (N = 23), week 6
[21] = 200 mg q.d. week 0 to 10, to placebo week 10 to 20 (N = 23), week 10
[22] = 200 mg q.d. week 0 to 10, to placebo week 10 to 20 (N = 23), week 12
[23] = 200 mg q.d. week 0 to 10, to placebo week 10 to 20 (N = 23), week 16
[24] = 200 mg q.d. week 0 to 10, to placebo week 10 to 20 (N = 23), week 20
[25] = placebo week 0 to 10, to 100 mg q.d. week 10 to 20 (N = 22), week 12
[26] = placebo week 0 to 10, to 100 mg q.d. week 10 to 20 (N = 22), week 16
[27] = placebo week 0 to 10, to 100 mg q.d. week 10 to 20 (N = 22), week 20

## O=C(Nc1nc2cccc(-c3ccc(CN4CCS(=O)(=O)CC4)cc3)n2n1)C1CC1 [Compound 1, cyclopropanecarboxylic acid {5-[4-(1,1-dioxo-thiomorpholin-4-ylmethyl)-phenyl]-[1,2,4]triazolo[1,5-a]pyridin-2-yl}-amide]
[1]
  Creatinine Mean CFB: 0.0 µmol/L
  Creatinine Mean percentage CFB: 0.0%
[2]
  Creatinine Mean CFB: 2.22 µmol/L
  Creatinine Mean percentage CFB: 4.13%
[3]
  Creatinine Mean CFB: 3.93 µmol/L
  Creatinine Mean percentage CFB: 6.08%
[4]
  Creatinine Mean CFB: 2.51 µmol/L
  Creatinine Mean percentage CFB: 4.44%
[5]
  Creatinine Mean CFB: 6.00 µmol/L
  Creatinine Mean percentage CFB: 9.34%
[6]
  Creatinine Mean CFB: 4.02 µmol/L
  Creatinine Mean percentage CFB: 7.10%
[7]
  Creatinine Mean CFB: 1.81 µmol/L
  Creatinine Mean percentage CFB: 3.62%
[8]
  Creatinine Mean CFB: 3.20 µmol/L
  Creatinine Mean percentage CFB: 5.43%
[9]
  Creatinine Mean CFB: 0.0 µmol/L
  Creatinine Mean percentage CFB: 0.0%
[10]
  Creatinine Mean CFB: 3.36 µmol/L
  Creatinine Mean percentage CFB: 5.77%
[11]
  Creatinine Mean CFB: 4.98 µmol/L
  Creatinine Mean percentage CFB: 8.03%
[12]
  Creatinine Mean CFB: 4.00 µmol/L
  Creatinine Mean percentage CFB: 6.37%
[13]
  Creatinine Mean CFB: 6.48 µmol/L
  Creatinine Mean percentage CFB: 11.55%
[14]
  Creatinine Mean CFB: 2.92 µmol/L
  Creatinine Mean percentage CFB: 6.01%
[15]
  Creatinine Mean CFB: 4.89 µmol/L
  Creatinine Mean percentage CFB: 8.86%
[16]
  Creatinine Mean CFB: 3.43 µmol/L
  Creatinine Mean percentage CFB: 6.19%
[17]
  Creatinine Mean CFB: 0.0 µmol/L
  Creatinine Mean percentage CFB: 0.0%
[18]
  Creatinine Mean CFB: 1.95 µmol/L
  Creatinine Mean percentage CFB: 3.55%
[19]
  Creatinine Mean CFB: 3.83 µmol/L
  Creatinine Mean percentage CFB: 6.09%
[20]
  Creatinine Mean CFB: 2.15 µmol/L
  Creatinine Mean percentage CFB: 3.92%
[21]
  Creatinine Mean CFB: 5.88 µmol/L
  Creatinine Mean percentage CFB: 10.23%
[22]
  Creatinine Mean CFB: 1.84 µmol/L
  Creatinine Mean percentage CFB: 3.14%
[23]
  Creatinine Mean CFB: 0.47 µmol/L
  Creatinine Mean percentage CFB: 1.93%
[24]
  Creatinine Mean CFB: -0.26 µmol/L
  Creatinine Mean percentage CFB: 0.68%
Week 2
  Study 3 - Creatinine Mean CFB: 2.44 µM
  Study 3 - Creatinine Mean percentage CFB: 4.41%
Week 4
  Study 3 - Creatinine Mean CFB: 4.16 µM
  Study 3 - Creatinine Mean percentage CFB: 6.55%
Week 6
  Study 3 - Creatinine Mean CFB: 2.81 µM
  Study 3 - Creatinine Mean percentage CFB: 4.82%
Week 10
  Study 3 - Creatinine Mean CFB: 6.08 µM
  Study 3 - Creatinine Mean percentage CFB: 10.05%
[25]
  Creatinine Mean CFB: 3.09 µmol/L
  Creatinine Mean percentage CFB: 4.87%
[26]
  Creatinine Mean CFB: 4.33 µmol/L
  Creatinine Mean percentage CFB: 6.52%
[27]
  Creatinine Mean CFB: 3.11 µmol/L
  Creatinine Mean percentage CFB: 4.31%
